Experimental data from patent publication US11118208B2, “Methods for modulating protein galactosylation profiles of recombinant proteins using peracetyl galactose” (ARES TRADING S.A., priority 2016, dated 2021).

Experiments:
CDC activity = details: degalactosylated antibody; cited from earlier work
[1] = system: galactosylation of mAb1 antibody (mAb1 cells); assay: Glycosylation profile of mAb1 produced in TubeSpin (CGE-LIF); assay type: cell-based, Chinese hamster
Description: (§1) First assays were performed with an antibody produced in a CHO cell line: CHO-S cells expressing IgG1 mAb1, herein “Cells mAb1” or “mAb1 cells”. “mAb1” is a fully human monoclonal antibody directed against a soluble protein. Its isoelectric point (pI) is about 8.20-8.30.
(§2) For examples 1-3: A serum-free chemically defined culture medium was used. It was used as it is, or it was supplemented with α- or β-2-F-peracetyl galactose (herein α- or β-2F-pGal; Biosynth & AX Molecules) at different concentrations (0-200 μM before seeding). The concentrations indicated on FIGS. 1, 2, 3 and 4 are the concentrations in α- or β-2F-pGal in the culture medium at day 0, just before the inoculation. The culture medium was fed, on a regular basis, with a chemically defined feed medium, as well as with glucose in order to keep said glucose level in the range of >0 to about 8 g/L (feeds are done at days 3, 5, 7, 10 and 12).
(§3) The cultures were performed in deepwell plates (DWP) with a working volume of 450 μL. They were incubated at 36.5° C., 5% de CO2, 90% humidity and shaken at 320 rpm. Each of the fed-batch culture lasted 14 days. It is well known that experiments in DWP are artificial, although they allow a first screening of culture conditions. In order to confirm that the results obtained in DWP were reproducible at higher scale, similar experiments were also run in TubeSpin® (also called herein shake tubes or ST), with a working volume of 30 mL cell culture (same culture condition than for deepwell plates).
(§4) Glycosylation profiles were established by capillary gel electrophoresis with laser-induced fluorescence (CGE-LIF; for DWP and for Shake tubes experiments) or by Ultra Performance Liquid Chromatography-2-amino-benzamide labelling technique (2AB-UPLC; for Shake tubes experiments). Groups of glycans were defined as thereafter in Table 3.

mAb1 cells (cell line 1) = assay: Fed-batch culture of mAb1 cells, supplementation as feed after the start of the culture: cell density, viability, titer; assay type: cell-based, Chinese hamster
Description: (§5) For example 4: Additional experiments were run in similar conditions, except with regard to supplementation with α- or β-2-F-peracetyl galactose. In such a case, a serum-free chemically defined culture medium was used, supplemented with α- or β-2-F-peracetyl galactose as mentioned thereafter in Table 2.
as §3
(§6) For TubeSpin® experiments, viable cell density and viability were measured with the ViCell®. Antibody titers were measured using Biacore®.
Rather than supplementing the medium prior to inoculation, it was decided to start the galactose analog addition on day 3, 5 or 7 (respectively β-2F-pGal-d3, β-2F-pGal-d5 and β-2F-pGal-d7; see Table 2). Cell line 1 was used for these experiments. […] The peak cell densities were reached on day 7. No significant difference between the control and the β-2F-pGal-d3 supplemented cultures was observed. They both levelled off at 20.8 and 21.2×10^6 viable cells/mL, respectively. […] Overall, it can be assumed that the presence of β-2F-p-galactose induced limited changes on cell growth until day 7. In the second half of the culture, both the cell density and the viability (FIG. 11B) are correlated with the feed timing. Supplementation on day 3 most strongly impacted the course of the culture. At harvest, the cell density amounted to 9.8×10^6 viable cells/mL (control: 11.8×10^6 viable cells/mL). […] Feed addition on day 5 and 7, respectively, entailed viabilities on day 14 of 78 and 90% (control: 93%). According to FIG. 11C, no clear titer trend came forward. Early supplementation induced a slight titer increase on days 7 and 10, but then reduced productivity at later stages of the culture.

[2] = system: mAb1 cells (CHO-S cells expressing IgG1 mAb1); assay: Fed-batch culture of mAb1 cells in TubeSpin (shake tubes): viable cell density, viability, titer; assay type: cell-based, Chinese hamster; details: shake tubes
Description: as §1
(§7) Cells expressing mAb1 were inoculated at 0.3×10^6 cells per millilitre (mL), whereas Cells expressing mAb2 were inoculated at 0.2×10^6 cells per millilitre (mL).
as §2, §3, §6

[3] = system: mAb1 cells (CHO-S cells expressing IgG1 mAb1); assay: Fed-batch culture of mAb1 cells in deepwell plates (DWP): viable cell density, viability, titer; assay type: cell-based, Chinese hamster
Description: as §1, §7, §2, §3
For DWP experiments, viable cell density and viability were measured with the Guava easyCyte® flow cytometer. Antibody titers were measured with the fortéBIO Octet®.
(§8) The cells were cultivated and the results analysed as disclosed in the material and method section. It is noted that the controls (or control conditions) according to the present invention correspond to cells grown without peracetyl galactose.

[4] = system: galactosylation of mAb1 antibody (mAb1 cells); assay: Glycosylation profile of mAb1 produced in DWP (CGE-LIF); assay type: cell-based, Chinese hamster
Description: as §1, §2, §3, §4, §8

[5] = system: galactosylation of mAb1 antibody (cell line 1); assay: Glycosylation profile of mAb1, supplementation as feed after the start of the culture (CGE-LIF); assay type: cell-based, Chinese hamster
Description: as §5, §4

In the case of “Rituxan: recombinant IgG whose degalactosylation was studied for CDC (Hodoniczky et al., 2005)”, the “change of CDC after degalactosylation relative to unmodified control Mab” value (CDC activity) is given as “reduced CDC by approximately half”.
In the case of `CC(=O)OC[C@H]1O[C@@H](OC(C)=O)[C@H](F)[C@@H](OC(C)=O)[C@H]1OC(C)=O` [β-2F-pGal, α/β-D-galactopyranose, 2-deoxy-2-fluoro-,1,3,4,6-tetraacetate], the “total level of galactosylation decreased by (Example 2.2)” value ([1]; 60 μM β anomer, shake tubes, CGE-LIF, unit not given) is reported as −5.0, the “absolute change of galactosylated N-oligosaccharides compared to the control” value ([1]; 60 μM, TubeSpin) is reported as “around 4%” and the “monogalactosylated form changed by (Example 2.2)” value ([1]; 60 μM, shake tubes, CGE-LIF, listed as β-2F-peracetyl-galactose) is reported as −4.7%. The “cell density at harvest” value (mAb1 cells (cell line 1); feed from day 3 (β-2F-pGal-d3)) was 9.8 ×106 viable cells/mL, the “protein titer (yield of the culture)” value (mAb1 cells (cell line 1); feed from day 3 (β-2F-pGal-d3)) was 2560 mg/L and the viability (mAb1 cells (cell line 1); feed from day 3 (β-2F-pGal-d3), second half of culture) was “below 60%”. The “peak cell density (day 7)” value (mAb1 cells (cell line 1); feed from day 3 (β-2F-pGal-d3: days 3, 5, 7, 10)) was 21.2 ×106 viable cells/mL, the “protein titer (yield of the culture)” value (mAb1 cells (cell line 1); feed from day 5 (β-2F-pGal-d5)) was 3215 mg/L and the “viability on day 14” value (mAb1 cells (cell line 1); feed from day 5 (β-2F-pGal-d5)) was 78%. The maximum cell density (mAb1 cells (cell line 1); feed from day 5 (β-2F-pGal-d5: days 5, 7, 10)) was 18.6 ×106 viable cells/mL, the “protein titer (yield of the culture)” value (mAb1 cells (cell line 1); feed from day 7 (β-2F-pGal-d7)) was 2100 mg/L and the “viability on day 14” value (mAb1 cells (cell line 1); feed from day 7 (β-2F-pGal-d7: days 7, 10)) was 90%. The “peak viable cell density at day 7” value ([2]; 60 μM) was 12.8 ×10^6 viable cells/mL, the “product titer at the end of the culture (day 14)” value ([2]; 60 μM, listed as β-2F-p-galactose) was 2225 mg/L and the “effect on cell culture performance” value ([2]; between 0 and 90 μM α-2F-p-galactose, 60 μM β-2F-p-galactose) was “No detrimental effect”. For the same compound, the “protein titer compared to the control at culture days 5, 7, 10, 12 and 14” value ([2]; α 30-90 μM, β 60 μM, listed as β-2F-p-galactose) was “comparable to the control”, the “decrease of titers comparing to control” value ([3]; concentration higher than 60 μM) was “about 1.2 factor” and the “impact on protein titre” value ([3]; concentrations between 30 and 60) was “no impact on protein titre”. For the same compound, the “impact on cell growth” value ([3]; concentrations of about 60 μM and higher) was “negative impact on cell growth”, the “impact on cell growth until the end of culture” value ([3]; concentrations up to 30 μM in medium) was “no impact on cell growth” and the “protein titer compared to the control” value ([3]; media concentration up to 60 μM, day 10 and day 14) was “stays above the protein titer of the control”. For the same compound, the “impact on cell density, cell viability and protein titer” value ([3]; media concentrations below 30 μM) was “do not impact”, the “G1F absolute change compared to the control” value (“G1F absolute change” below) ([4]; 30 μM) was 1.1% and the “G2F absolute change compared to the control” value (from here on “G2F absolute change”) ([4]; 30 μM) was 0.20%. The “absolute change in galactosylated N-oligosaccharide compared to the control” value ([4]; 30 μM) was 2.2%, the “relative decrease of galactosylated N-oligosaccharides compared to control” value (shortened to “relative decrease”) ([4]; 30 μM) was 22% and the “galactosylated N-oligosaccharides of the protein” value ([4]; 30 μM in medium) was 8.3%. The “G1F absolute change” value ([4]; 60 μM) was 2.5%, the “G2F absolute change” value ([4]; 60 μM) was 0.30% and the “absolute change in galactosylated N-oligosaccharide compared to the control” value ([4]; 60 μM) was 4.2%. The “relative decrease” value ([4]; 60 μM) was 40%, the “galactosylated N-oligosaccharides of the protein” value ([4]; 60 μM in medium) was 6.4% and the “G1F absolute change” value ([4]; 120 μM) was 3.1%. For the same compound, the “G2F absolute change” value ([4]; 120 μM) was 0.33%, the “absolute change in galactosylated N-oligosaccharide compared to the control” value ([4]; 120 μM) was 5.4% and the “relative decrease” value ([4]; 120 μM) was 52%. For the same compound, the “galactosylated N-oligosaccharides of the protein” value ([4]; 120 μM in medium) was 5.1%, the “G1F absolute change” value ([4]; 200 μM) was 4.4% and the “G2F absolute change” value ([4]; 200 μM) was 0.40%. The “absolute change in galactosylated N-oligosaccharide compared to the control” value ([4]; 200 μM) was 6.7%, the “relative decrease” value ([4]; 200 μM) was 64% and the “galactosylated N-oligosaccharides of the protein” value ([4]; 200 μM in medium) was 3.9%. The “inhibition effect on galactosylation” value ([4]; below 30) was “neither α- or β-2F-pGal does have a significant inhibition effect on galactosylation”, the “inhibition effect on galactosylation” value ([4]; concentrations higher than 30 μM) was “a significant inhibition effect is observed” and the “effects on the other glycan species” value ([5]; feed after the start of the culture) was “remained small”. For the same compound, the di-galactosylated entity decrease ([5]; feed from day 3) was −0.41, the mono-galactosylated species drop ([5]; feed from day 3) was −8.0% and the “overall galactosylation decrease (absolute change vs control)” value ([5]; feed from day 3 (β-2F-pGal-d3)) was −8.5%. The di-galactosylated entity decrease ([5]; feed from day 5) was −0.33, the mono-galactosylated species drop ([5]; feed from day 5) was −6.7% and the “overall galactosylation decrease (absolute change vs control)” value ([5]; feed from day 5 (β-2F-pGal-d5)) was −7.0%. The di-galactosylated entity decrease ([5]; feed from day 7) was −0.19, the mono-galactosylated species drop ([5]; feed from day 7) was −4.4% and the “overall galactosylation decrease (absolute change vs control)” value ([5]; feed from day 7 (β-2F-pGal-d7)) was −4.6%.
